Usually koff stands for the rate constant with which the complex falls apart. The term kon denotes the second-order rate constant of association. A high value points to fast association.

Test [1] deals with T1, SULT1A3 (Homo sapiens, UniProt P0DMM9).
T1 construct: E. coli–optimized SULT coding regions were inserted into a pGEX-6P expression vector; N-His/GST/MBP triple tag (PreScission-cleavable) (N, cleaved yes); made in house; host or cells: E. coli BL21(DE3)
More on the design: method as in PMID 30545938. The note with it: saturating inhibitor, cited from earlier work.

Test [2] deals with T1, SULT1A3. In words: Pre-steady-state (stopped-flow fluorescence) binding of PAP to SULT1A3 complexes. To be noted: for Kd: read-out: Kd (koff/kon). The source says: Figure 4 The inhibition mechanism. A, equilibrium binding. Binding was monitored via ligand-induced changes in SULT1A3 intrinsic fluorescence (λex = 290 nm, λem = 335 nm). […] Each dot represents the average of three independent titrations. Lines passing through the data represent the outcomes predicted by least-squares fitting of the averaged data to a single-binding-site model. B, representative PAP-binding reaction. PAP binding was monitored using a stopped-flow fluorimeter (λex = 290 nm, λem ≥ 330 nm (cutoff filter)). Reactions were initiated by rapidly mixing (1:1 v/v) a solution containing SULT1A3 (30 nM, dimer), CMP13 (1.0 μM, 100 × Kd), Tam (160 μM, 200 × Kd), KPO4 (50 mM), pH 7.5, 25(±2) °C, with a solution that was identical except that it lacked SULT1A3 and contained PAP (2.0 μM). The average of five independent progress curves shown and the kobs was obtained by fitting the data to a single exponential. C, pre–steady-state binding. PAP binding was monitored as described for panel B. Reactions were initiated by mixing (1:1 v/v) a solution containing SULT1A3 (30 nM, dimer), CMP13 [0 μM (black dots) or 1.0 μM, 100 × Kd (red and blue dots)], Tam [0 μM (black and blue dots) or 160 μM, 200 × Kd (red dots)], KPO4 (50 mM), pH 7.5, 25(±2) °C, with a solution that was identical except that it lacked SULT1A3 and contained PAP at twice the indicated concentrations. Each kobs value was determined in triplicate, and the averaged values are shown. kon and koff are given, respectively, by the slopes and intercepts obtained from linear least-squares fitting of the kobs vs [PAP] plot. PAP, 3′-phosphoadenosine-5′-phosphate; SULT1A3, sulfotransferase 1A3; Tam, 4-hydroxy-tamoxifen.
To resolve this uncertainty, PAP on- and off-rate constants for a series of open and closed complexes were determined using stopped-flow fluorescence. A representative binding reaction can be seen in Fig. 4B. The binding reactions were pseudo-first order in [PAP], and kobs values were obtained by fitting reaction progress curves to a single-exponential equation. On- and off-rate constants (see Table 3) are given by the plot slopes and intercepts.
Pre–steady-state binding of PAP to SULT1A3 was monitored via ligand-induced changes in SULT1A3 fluorescence using an Applied Photophysics SX20 stopped-flow spectrofluorometer. Fluorescence was measured at λex = 290 nm and λem ≥ 330 nm (using a cutoff filter). […] All reactions were pseudo first order with respect to [PAP]. kobs values, determined in triplicate at each PAP concentration, were obtained by least-squares fitting the average of five progress curves to a single-exponential equation. kon and koff, obtained by linear least-squares fitting, are given by the slopes and intercepts of four-point kobs-vs-[PAP] plots.

Test [3] concerns the target T1, SULT1A3. The test is described as follows: Equilibrium binding of PAP to SULT1A3 complexes (intrinsic fluorescence). As to the method: CMP13 binding to SULT1A3 was monitored via binding-induced changes in SULT1A3 intrinsic fluorescence (λex= 290 nm, λem= 335 nm ([17])). […] PAP binding was determined using the same protocol except that [PAP] was varied and CMP13 was 1.0 μM (100 × Ki). Titrations were performed in triplicate. Data were averaged and least-squares fit using a model that assumes a single binding site per monomer.

Setting [4] is: PAP binding to complex E·CMP13, CMP13 1.0 μM.
Where [5] appears, read: PAP binding to complex E·CMP13·Tam, CMP13 1.0 μM, Tam 160 μM.
The mark [6] stands for this setting: PAP binding to complex E·CMP13·Tam.

T1 sequence (P0DMM9 whole entry): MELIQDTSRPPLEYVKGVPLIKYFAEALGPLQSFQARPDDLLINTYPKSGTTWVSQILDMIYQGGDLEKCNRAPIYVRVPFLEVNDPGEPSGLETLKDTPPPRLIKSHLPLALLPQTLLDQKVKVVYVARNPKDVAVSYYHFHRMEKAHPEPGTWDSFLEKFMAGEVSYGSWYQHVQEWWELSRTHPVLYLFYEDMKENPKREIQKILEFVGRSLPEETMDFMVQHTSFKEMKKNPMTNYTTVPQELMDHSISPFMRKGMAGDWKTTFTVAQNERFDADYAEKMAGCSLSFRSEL

For the compound `CC(C)Cc1ccc2cc(CO)ccc2n1` [CMP8], the “% Inhibition at saturation” value at SULT1A3 [1] (in vitro) is recorded as 54 (3) %. At SULT1A3 [1], the “factor by which SULT1A3 turnover is reduced at saturation” value was 2 and the “turnover at saturation as % of that seen in absence of inhibitor” value was 46%.
As for `Nc1ncnc2c1ncn2[C@@H]1O[C@H](COP(=O)(O)O)[C@@H](OP(=O)(O)O)[C@H]1O` [PAP, 3′-phosphoadenosine-5′-phosphate], the results for the koff on SULT1A3 [2] (PAP binding to complex E), at SULT1A3 [2] (setting [4]) and on SULT1A3 [2] (setting [5]) were 2.5 s⁻¹, 0.18 s⁻¹ and 2.3 s⁻¹, respectively. Also, the figures for the on-rate constant (kon) at SULT1A3 [2] (PAP binding to complex E), on SULT1A3 [2] (setting [4]) and at SULT1A3 [2] (setting [5]) were 6.9e+06 M⁻¹ s⁻¹, 6.6e+06 M⁻¹ s⁻¹ and 6.5e+06 M⁻¹ s⁻¹, respectively. For the same compound, the Kd at SULT1A3 [2] (PAP binding to complex E) was determined as 360 nM; on SULT1A3 [2] (PAP binding to complex E·CMP13) it was 29 nM; at SULT1A3 [2] (setting [6]), 350 nM; at SULT1A3 [3] (PAP binding to complex E) it was 320 nM; on SULT1A3 [3] (setting [4]) it was 31 nM; at SULT1A3 [3] (setting [6]), 350 nM.
